Data as given in patent US20230391775A1, “SUBSTITUTED DIARYLAMINE COMPOUND, PHARMACEUTICAL COMPOSITION THEREOF, PREPARATION METHOD THEREFOR, AND USE THEREOF” (SUZHOU YABAO PHARMACEUTICAL R&D CO., LTD., priority 2020, published 2023).

Target: LRRK2 G2019S (Homo sapiens (Human), UniProt Q5S007, G2019S)
Assay: Adapta kinase assay (LRRK2_IC50 assay)
Type: biochemical
Conditions: Adapta TR-FRET, 1 h, room temperature
Method: In the Adapta™ kinase assay method (LRRK2_IC50 assay): the kinase reaction buffer contained kinase buffer S (Life Technologies, PV5213) and 2 mM DTT (Life Technologies, P2325). The kinases LRRK2 G2019S protein (PV4881) and ERM (LRRKtide, PV5093) were derived from Life Technologies. The Adapta™ universal kinase assay kit (Life Technologies, PV5099) contained the following components: Adapta™ Eu-anti-ADP antibody (PV5097; 4 μg); 10 μM AlexaFluor®647 ADP tracer (PV5098; 200 pmol); TR-FRET dilution buffer (PV3574; 100 mL); kinase quench buffer (P2825; 1 mL); 10 mM ATP (PV3227; 500 μL); and 10 mM ADP (PV5096; 500 μL). LRRK2-IN-1 (1234480-84-2, HY-10875) was derived from MedChem Express.
Adapta™ Kinase Assay Method
Adapta® universal kinase assay method is a uniform fluorescence-based immunoassay for detecting ADP. In contrast to ATP consumption assay, Adapta® assay method was very sensitive to ADP formation, with most signal changes occurring when initially 10-20% ATP was converted to ADP. This made Adapta® universal kinase assay method very suitable for low-activity kinases.
All assays were performed at room temperature (about 21° C.) and were linearly related to time and enzyme concentration under the conditions used. 1× kinase reaction buffer was prepared from 5× kinase buffer S stock solution (listed above), and 10 mL of 1× kinase reaction buffer was prepared by the addition of 2 mL of 5× stock solution to 8 mL of H2O. To the 1× kinase reaction buffer was added 20 μL of 1 M DTT.
A kinase reaction was performed in a low-volume 384-well plate in a volume of 10 μL. Typically, a Greiner plate was used (Catalog #3674 #, low volume, white wall, 784075). Other untreated assay plates that were not tested could also be suitable. The substrate concentration in the assay was 100 μM, and the 1× kinase reaction buffer consisted of 50 mM Tris-HCl (pH 8.5), 10 mM MgCl2, 1 mM EGTA, 0.01% Brij-35 and 2 mM DTT, as well as any other additives that could be necessary for the particular kinase. The kinase reaction was allowed to proceed for 1 h at room temperature, followed by the addition of a formulation of kinase quenching buffer (EDTA; 30 mM), Eu-labeled antibody (6 nM), and tracer (18.9 nM) in TR-FRET dilution buffer (5 μL). The final concentration of the antibody in the assay wells was 2 nM, the final concentration of the tracer was 6.3 nM, and the final concentration of EDTA was 10 mM. The plate was allowed to equilibrate at room temperature for at least 30 min and then read on a plate reader configured for Adapta™ TR-FRET.
The data provided in this document were generated by using BMG LABTECH PHERAstar plate reader and using appropriate filters and instrument settings for Adapta™. Test compounds were screened in wells with 1% DMSO (final). For 8-point titration, a 5-fold serial dilution was made on the basis of a starting concentration.

Sequence of LRRK2 G2019S (Q5S007 whole entry G2019S): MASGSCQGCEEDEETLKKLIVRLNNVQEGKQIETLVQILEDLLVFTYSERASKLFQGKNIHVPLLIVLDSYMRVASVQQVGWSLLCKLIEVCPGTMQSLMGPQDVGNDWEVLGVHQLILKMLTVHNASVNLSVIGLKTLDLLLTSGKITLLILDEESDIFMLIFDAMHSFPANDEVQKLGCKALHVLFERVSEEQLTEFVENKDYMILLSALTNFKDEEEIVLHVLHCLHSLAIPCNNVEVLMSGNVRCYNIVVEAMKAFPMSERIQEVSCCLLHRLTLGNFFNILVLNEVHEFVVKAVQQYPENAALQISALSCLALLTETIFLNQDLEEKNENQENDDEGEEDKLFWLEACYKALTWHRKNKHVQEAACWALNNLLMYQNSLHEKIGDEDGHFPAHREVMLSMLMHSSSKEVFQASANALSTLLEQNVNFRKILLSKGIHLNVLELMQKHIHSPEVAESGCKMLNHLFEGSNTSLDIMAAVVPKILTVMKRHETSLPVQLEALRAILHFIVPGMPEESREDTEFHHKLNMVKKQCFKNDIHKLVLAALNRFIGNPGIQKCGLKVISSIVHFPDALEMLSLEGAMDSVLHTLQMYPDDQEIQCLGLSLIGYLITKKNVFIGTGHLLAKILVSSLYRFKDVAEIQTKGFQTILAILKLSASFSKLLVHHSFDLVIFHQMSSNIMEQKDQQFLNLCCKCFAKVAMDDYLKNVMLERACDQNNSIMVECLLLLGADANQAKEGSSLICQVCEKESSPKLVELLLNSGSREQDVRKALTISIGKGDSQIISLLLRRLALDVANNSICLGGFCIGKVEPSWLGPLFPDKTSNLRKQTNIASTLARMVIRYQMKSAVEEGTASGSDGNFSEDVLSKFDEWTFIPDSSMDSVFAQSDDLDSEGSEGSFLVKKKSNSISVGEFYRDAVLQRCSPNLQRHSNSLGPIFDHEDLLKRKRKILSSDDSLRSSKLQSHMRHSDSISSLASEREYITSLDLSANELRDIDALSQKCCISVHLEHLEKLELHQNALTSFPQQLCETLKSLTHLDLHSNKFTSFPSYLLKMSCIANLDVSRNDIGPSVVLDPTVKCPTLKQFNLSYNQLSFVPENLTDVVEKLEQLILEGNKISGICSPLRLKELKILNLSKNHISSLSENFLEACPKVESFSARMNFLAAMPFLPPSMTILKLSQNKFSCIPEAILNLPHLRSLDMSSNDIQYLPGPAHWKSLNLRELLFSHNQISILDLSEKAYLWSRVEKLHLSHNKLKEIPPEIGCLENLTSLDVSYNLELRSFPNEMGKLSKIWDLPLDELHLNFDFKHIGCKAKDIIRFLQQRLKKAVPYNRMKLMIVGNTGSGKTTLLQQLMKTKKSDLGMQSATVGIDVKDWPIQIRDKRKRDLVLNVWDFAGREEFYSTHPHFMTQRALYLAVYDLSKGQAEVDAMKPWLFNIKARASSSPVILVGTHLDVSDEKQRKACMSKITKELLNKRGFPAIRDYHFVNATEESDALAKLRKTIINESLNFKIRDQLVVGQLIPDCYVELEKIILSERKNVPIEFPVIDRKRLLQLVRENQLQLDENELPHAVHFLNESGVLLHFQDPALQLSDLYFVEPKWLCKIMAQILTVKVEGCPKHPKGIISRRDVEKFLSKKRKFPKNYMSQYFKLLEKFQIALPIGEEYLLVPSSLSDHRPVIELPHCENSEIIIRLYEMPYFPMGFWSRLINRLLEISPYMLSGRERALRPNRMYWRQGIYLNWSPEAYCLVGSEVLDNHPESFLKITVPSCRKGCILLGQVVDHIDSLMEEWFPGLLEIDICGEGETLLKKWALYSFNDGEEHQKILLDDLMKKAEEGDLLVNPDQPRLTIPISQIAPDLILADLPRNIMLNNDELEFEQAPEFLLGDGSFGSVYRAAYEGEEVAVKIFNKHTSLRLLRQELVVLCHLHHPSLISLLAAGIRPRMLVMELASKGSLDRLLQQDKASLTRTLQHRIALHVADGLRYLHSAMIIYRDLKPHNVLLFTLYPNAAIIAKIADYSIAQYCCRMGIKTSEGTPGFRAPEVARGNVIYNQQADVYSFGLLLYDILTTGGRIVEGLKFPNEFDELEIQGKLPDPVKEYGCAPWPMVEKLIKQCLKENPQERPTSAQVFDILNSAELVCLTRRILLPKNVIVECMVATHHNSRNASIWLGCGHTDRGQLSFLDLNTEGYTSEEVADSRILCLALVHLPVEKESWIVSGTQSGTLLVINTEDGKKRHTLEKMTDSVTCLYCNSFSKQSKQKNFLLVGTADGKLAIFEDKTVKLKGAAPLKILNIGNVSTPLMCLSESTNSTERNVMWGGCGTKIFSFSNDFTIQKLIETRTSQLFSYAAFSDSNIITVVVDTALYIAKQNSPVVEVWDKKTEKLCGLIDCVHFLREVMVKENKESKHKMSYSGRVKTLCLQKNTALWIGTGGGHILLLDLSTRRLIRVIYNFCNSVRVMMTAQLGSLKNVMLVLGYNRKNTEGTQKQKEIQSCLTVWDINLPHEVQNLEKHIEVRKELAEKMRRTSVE

Row | SMILES | IC50 [nM]
1 | CCOc1nc(Nc2cc(F)c(C3(N4CCOCC4)CC3)cc2OC)nc2[nH]ccc12 [Compound 36] | 38
2 | CCOc1nc(Nc2ccc(C(N3CCOCC3)C(F)(F)F)cc2OC)nc2[nH]ccc12 (single isomer, unassigned) [Compound 1, 4-ethoxy-N-(2-methoxy-4-(2,2,2-trifluoro-1-morpholinoethyl)phenyl)-7H-pyrrolo[2,3-d]pyrimidin-2-amine] | 12
3 | COc1cc(C(N2CCOCC2)C(F)(F)F)ccc1Nc1nc(OCCO)c2cc[nH]c2n1 (single isomer, unassigned) [Compound 27] | 5
4 | COc1cc(C(N2CCOCC2)C(F)(F)F)ccc1Nc1ncc2cc[nH]c2n1 (single isomer, unassigned) [Compound 15] | 328
5 | CCOc1nc(Nc2ccc(C(N3CCN(C)CC3)C(F)(F)F)cc2OC)nc2[nH]ccc12 (single isomer, unassigned) [Compound 29] | 12
6 | CCOc1nc(Nc2ccc(C(N3C[C@@H]4C[C@H]3CO4)C(F)(F)F)cc2OC)nc2[nH]ccc12 (single isomer, unassigned) [Compound 10] | 11
7 | CCOc1nc(Nc2ccc(C(N3C[C@H]4C[C@@H]3CO4)C(F)(F)F)cc2OC)nc2[nH]ccc12 (single isomer, unassigned) [Compound 33] | 10
8 | CNc1nc(Nc2cc(F)c(C3(N4CCOCC4)CC3)cc2OC)ncc1C(F)(F)F [Compound 37] | 34
9 | CCc1nc(Nc2ccc(C(N3CCOCC3)C(F)(F)F)cc2OC)nc2[nH]ccc12 (single isomer, unassigned) [Compound 19] | 332
10 | COc1cc(C(N2CCOCC2)C(F)(F)F)ccc1Nc1nc(OCCO)c2cc[nH]c2n1 (single isomer, unassigned) [Compound 28] | 5
11 | CCOc1nc(Nc2ccc(C(N3C[C@@H]4C[C@H]3CO4)C(F)(F)F)cc2OC)nc2[nH]ccc12 (single isomer, unassigned) [Compound 9] | 7
12 | CCOc1nc(Nc2ccc(C3(N4CCOCC4)CC3)cc2OC)nc2[nH]ccc12 [Compound 3, 4-ethoxy-N-(2-methoxy-4-(1-morpholinocyclopropyl)phenyl)-7H-pyrrolo[2,3-d]pyrimidin-2-amine] | 7
13 | COc1cc(C(N2CCOCC2)C(F)(F)F)ccc1Nc1nc(OCC(F)(F)F)c2cc[nH]c2n1 (single isomer, unassigned) [Compound 5] | 17
14 | CCOc1nc(Nc2ccc(C(N3C[C@H]4C[C@@H]3CO4)C(F)(F)F)cc2OC)nc2[nH]ccc12 (single isomer, unassigned) [Compound 34] | 8
15 | CCOc1nc(Nc2ccc(C(N3CCOCC3)C(F)(F)F)cc2F)nc2[nH]ccc12 (single isomer, unassigned) [Compound 14] | 30
16 | COc1cc(C(N2CCOCC2)C(F)(F)F)ccc1Nc1ncc2cc[nH]c2n1 (single isomer, unassigned) [Compound 16] | 430
17 | CCOc1nc(Nc2ccc(C(C)(N3CCOCC3)C(F)(F)F)cc2OC)nc2[nH]ccc12 (single isomer, unassigned) [Compound 2, 4-ethoxy-N-(2-methoxy-4-(1,1,1-trifluoro-2-morpholinylpropan-2-yl)phenyl)-7H-pyrrolo[2,3-d]pyrimidin-2-amine] | 55
18 | COc1cc(C(N2CCOCC2)C(F)(F)F)ccc1Nc1nc(C)c2cc[nH]c2n1 (single isomer, unassigned) [Compound 17] | 204
19 | COc1cc(C(N2C[C@@H]3C[C@H]2CO3)C(F)(F)F)ccc1Nc1nc(OCC(F)(F)F)c2cc[nH]c2n1 (single isomer, unassigned) [Compound 8] | 52

Row | SMILES | IC50 [nM]
20 | COc1nc(Nc2ccc(C(N3CCOCC3)C(F)(F)F)cc2Cl)nc2[nH]ccc12 (single isomer, unassigned) [Compound 23] | 147
21 | COc1cc(C(N2CCOCC2)C(F)(F)F)ccc1Nc1nc(OCC(F)(F)F)c2cc[nH]c2n1 (single isomer, unassigned) [Compound 6] | 12
22 | CCOc1nc(Nc2ccc(C(N3CCN(C)CC3)C(F)(F)F)cc2OC)nc2[nH]ccc12 (single isomer, unassigned) [Compound 30] | 22
23 | COc1cc(C2(N3CCOCC3)CC2)c(F)cc1Nc1nc(OC)c2cc[nH]c2n1 [Compound 38] | 25
24 | CCOc1nc(Nc2ccc(C(C)(N3CCOCC3)C(F)(F)F)cc2OC)nc2[nH]ccc12 (single isomer, unassigned) [Compound 35, 4-ethoxy-N-(2-methoxy-4-(1,1,1-trifluoro-2-morpholinopropan-2-yl)phenyl)-7H-pyrrolo[2,3-d]pyrimidin-2-amine] | 275
25 | CCOc1nc(Nc2ccc(C(N3CCOCC3)C(F)(F)F)cc2Cl)nc2[nH]ccc12 (single isomer, unassigned) [Compound 21] | 119
26 | COCCOc1nc(Nc2ccc(C(N3CCOCC3)C(F)(F)F)cc2OC)nc2[nH]ccc12 (single isomer, unassigned) [Compound 11] | 6
27 | CCOc1nc(Nc2ccc(C(N3CCOCC3)C(F)(F)F)cc2Cl)nc2[nH]ccc12 (single isomer, unassigned) [Compound 22] | 138
28 | CCOc1nc(Nc2ccc(C(N3CCN4CCC[C@@H]4C3)C(F)(F)F)cc2OC)nc2[nH]ccc12 (single isomer, unassigned) [Compound 32] | 27
29 | COc1cc(C(N2CCOCC2)C(F)(F)F)ccc1Nc1nc(C)c2cc[nH]c2n1 (single isomer, unassigned) [Compound 18] | 253
30 | COc1nc(Nc2ccc(C(N3CCOCC3)C(F)(F)F)cc2Cl)nc2[nH]ccc12 (single isomer, unassigned) [Compound 24] | 122
31 | CCc1nc(Nc2ccc(C(N3CCOCC3)C(F)(F)F)cc2OC)nc2[nH]ccc12 (single isomer, unassigned) [Compound 20] | 235
32 | CCOc1nc(Nc2ccc(C(N3CCOCC3)C(F)(F)F)cc2CC)nc2[nH]ccc12 (single isomer, unassigned) [Compound 26] | 70
33 | COCCOc1nc(Nc2ccc(C(N3CCOCC3)C(F)(F)F)cc2OC)nc2[nH]ccc12 (single isomer, unassigned) [Compound 12] | 12
34 | CCOc1nc(Nc2ccc(C(N3CCN4CCC[C@@H]4C3)C(F)(F)F)cc2OC)nc2[nH]ccc12 (single isomer, unassigned) [Compound 31] | 64
35 | CCOc1nc(Nc2ccc(C(N3CCOCC3)C(F)(F)F)cc2CC)nc2[nH]ccc12 (single isomer, unassigned) [Compound 25] | 141
36 | COc1cc(C(N2C[C@@H]3C[C@H]2CO3)C(F)(F)F)ccc1Nc1nc(OCC(F)(F)F)c2cc[nH]c2n1 (single isomer, unassigned) [Compound 7] | 47
37 | CCOc1nc(Nc2ccc(C(N3CCOCC3)C(F)(F)F)cc2F)nc2[nH]ccc12 (single isomer, unassigned) [Compound 13] | 31
